# Tests used:
# [1] = target: T1, Gq coupled P2u purinergic receptor (THP-1) (Homo sapiens, UniProt P41231); test: model calcium flux assay, dose response in microfluidic device; assay type: cell-based; conditions: THP-1 cells preloaded with Fluo-3 or Fluo-4; UTP 100, 300, 1000 and 3000 nM; detection 15 seconds after initial exposure; FIG. 2D/2E
# T1 construct: cell line that carried the Gq coupled P2u purinergic receptor (THP-1); endogenous in cells; host or cells: THP-1 (human monocytic leukemia cell line)
# Text: The device shown in FIG. 2C was fabricated and used to test the dose response of a human monocytic leukemia cell line that carried the Gq coupled P2u purinergic receptor (THP-1), as a model calcium flux assay. Briefly, a phospholipase C/IP3/calcium signal transduction pathway is activated when the receptor binds to its ligand, UTP. When the cells are preloaded with a calcium sensitive indicator, i.e., Fluo-3 or Fluo-4 (available from Molecular Probes, Eugene, Oreg.), the transient increase in intracellular calcium is then detected as a fluorescent signal.
# In the present example and with reference to FIGS. 2A and 2C, THP-1 cells were preloaded with Fluo-3 or Fluo-4, as well as a nucleic acid stain (Syto-62 from Molecular Probes). The cells were washed and resuspended in Cell Buffer (1.56 ml HBSS, 0.94 ml 33% Ficoll, 5 μl HEPES (1 M stock), 25 μl 100×PBC, 25 μl 10% BSA, and 0.546 ml OPTI-Prep (65% stock)) and added to reservoir 206. Different concentrations of UTP in Cell Buffer (100, 300, 1000 and 3000 nM, respectively) were then added to reagent reservoirs 210-216. […]
# In order to monitor the stepwise increase of each UTP reagent solution, an additional marker solution, BODIPY-arginine, was added to the reagent reservoirs 210-216. […] Briefly, the slope of calcium signal (response) vs. Syto 62 signal (cell number) was calculated for each UTP concentration.
# Protein Kinase A (PKA) = Protein Kinase A (PKA) (Homo sapiens, UniProt P17612); test: nonfluorogenic (mobility shift) assay of kinase activity in microfluidic device; assay type: biochemical; conditions: PKA 100 nM, 10 μM F1-Kemptide; different concentrations of inhibitor sipped; FIG. 3C
# Method: The device illustrated in FIG. 3B was used as described to perform a nonfluorogenic assay of kinase activity, and particularly, to screen for inhibition of kinase activity by inhibitors brought into the device via the external sampling capillary. In particular, Protein Kinase A (PKA) enzyme (100 nM) was placed into well 350, while the fluorescent substrate (10 μM F1-Kemptide) was placed into well 352, different concentrations of an exemplary PKA inhibitor (H-89) were sipped into the reaction channel portion 304 via an external capillary element (the entry point of which is shown as 302) at regular intervals. Flow of materials, including sipping of inhibitor was caused by applying vacuum (as described above) at waste reservoir 358. An electric field was constantly applied across the length of channel segment 310 by virtue of different voltages being applied at reservoirs 354 and 356. The process utilized a 5 second sipping time, with an overall 100 second duty cycle, e.g., reaction time plus separation time plus clearing time.
# T1 sequence (P41231 whole entry): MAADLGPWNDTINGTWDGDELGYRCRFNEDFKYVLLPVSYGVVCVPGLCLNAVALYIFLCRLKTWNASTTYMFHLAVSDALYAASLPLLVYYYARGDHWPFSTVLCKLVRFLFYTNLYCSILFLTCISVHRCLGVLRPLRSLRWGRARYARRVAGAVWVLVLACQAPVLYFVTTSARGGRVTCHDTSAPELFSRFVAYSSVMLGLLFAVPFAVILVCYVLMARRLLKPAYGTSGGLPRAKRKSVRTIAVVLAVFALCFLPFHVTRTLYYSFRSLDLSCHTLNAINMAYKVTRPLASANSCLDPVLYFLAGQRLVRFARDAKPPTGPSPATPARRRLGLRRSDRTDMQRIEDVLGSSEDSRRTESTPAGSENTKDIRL
SMILES,"calcium signal (response), fluorescent signal from each cell [1]",inhibition of kinase activity (deviation from steady state) (Protein Kinase A (PKA))
O=c1ccn([C@@H]2O[C@H](COP(=O)(O)OP(=O)(O)OP(=O)(O)O)[C@@H](O)[C@H]2O)c(=O)[nH]1 [UTP],peaks increase discernibly in size with each stepwise addition,–
O=S(=O)(NCCNC/C=C/c1ccc(Br)cc1)c1cccc2cnccc12 [H-89],–,greatest deviation from steady state (A) is seen with highest inhibitor concentration
